Data taken from US20130217664A1, “NOVEL COMPOUNDS USEFUL FOR THE TREATMENT OF DEGENERATIVE AND INFLAMMATORY DISEASES” (priority 2012, published 2013).
Where two headings read alike, the source gives them in different places.

Tests used:
human TYK2 = biological target: T1, human TYK2 (Homo sapiens, UniProt P29597); assay: TYK2 inhibition assay; type: biochemical; conditions: recombinant human TYK2 catalytic domain, polyGT substrate
T1 construct: catalytic domain (amino acids 871-1187; catalog number 08-147); purchased Carna Biosciences 08-147
T1 sequence (P29597 871-1187): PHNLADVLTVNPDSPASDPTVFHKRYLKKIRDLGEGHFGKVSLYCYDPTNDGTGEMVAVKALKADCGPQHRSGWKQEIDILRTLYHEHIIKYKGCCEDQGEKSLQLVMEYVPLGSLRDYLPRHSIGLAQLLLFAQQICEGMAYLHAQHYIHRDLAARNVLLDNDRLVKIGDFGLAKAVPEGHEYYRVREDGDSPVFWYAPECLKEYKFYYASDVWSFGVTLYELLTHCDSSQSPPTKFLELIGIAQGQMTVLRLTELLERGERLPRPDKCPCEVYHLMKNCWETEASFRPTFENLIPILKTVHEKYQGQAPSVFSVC
Summary of the method: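 Radiometric kinase reaction run 90 min at 30 °C, stopped with phosphoric acid, washed and scintillation-counted.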

[1] = test system: pSTAT1(2)-luciferase reporter in HeLa cells triggered with human OSM; assay: JAK-STAT signalling assay; type: cell-based; conditions: HeLa cells, pSTAT1(2)-luciferase reporter, human OSM 33 ng/mL, read-out: JAK-STAT IC50
Summary of the method: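 Compound added 60 min before 33 ng/mL (final) human OSM; after overnight stimulation at 37 °C, luciferase signal from a transiently transfected pSTAT1(2) reporter in HeLa cells was read, with LacZ as internal control. EC50 derived from percent-inhibition dose-response curves.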

BA/F3 cell line = assay: BA/F3 viability assay; conditions: Mus musculus, BaF3, 48 h, read-out: BA/F3 IC50
CTLL-2 cell line = assay: CTLL2 viability assay; type: cell-based; conditions: Mus musculus, IL-2 dependent CTLL2 viability, 24 h, ATP-lite
From the text: The protocol describes the methods to analyse the activity of compounds on their ability to sustain the IL2-dependent viability of CTLL2.
Final DMSO concentration was 0.1%.

human JAK3 = biological target: T2, human JAK3 (Homo sapiens, UniProt P52333); assay: JAK3 inhibition assay; type: biochemical; conditions: recombinant human JAK3 catalytic domain; polyGT substrate
T2 construct: catalytic domain (amino acids 781-1124; catalog number PV3855); purchased Invitrogen PV3855
Summary of the method: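 Radiometric kinase assay: 0.5 ng JAK3 with 2.5 μg polyGT in Tris pH 7.5/MgCl2 buffer, 1 μM ATP plus 0.25 μCi 33P-γ-ATP, 1% DMSO, 45 min at 30 °C, stopped with phosphoric acid.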

human JAK1 = biological target: T3, human JAK1 (Homo sapiens, UniProt P23458); assay: JAK1 inhibition assay (polyGT substrate / Ulight-JAK1 peptide); type: biochemical; conditions: recombinant human JAK1 catalytic domain; polyGT or Ulight-JAK1 peptide assay
T3 construct: catalytic domain, amino acids 866-1154; catalog number PV4774; purchased Invitrogen PV4774
Summary of the method: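 Signal scaled between vehicle and 10 μM staurosporine. Radiometric polyGT reactions ran 45 min at 30 °C, counted after phosphoric-acid stop. Ulight peptide reactions ran 60 min at room temperature, fluorescence read after adding Eu-PT66 detection mix with EDTA.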

T2 sequence (P52333 781-1124): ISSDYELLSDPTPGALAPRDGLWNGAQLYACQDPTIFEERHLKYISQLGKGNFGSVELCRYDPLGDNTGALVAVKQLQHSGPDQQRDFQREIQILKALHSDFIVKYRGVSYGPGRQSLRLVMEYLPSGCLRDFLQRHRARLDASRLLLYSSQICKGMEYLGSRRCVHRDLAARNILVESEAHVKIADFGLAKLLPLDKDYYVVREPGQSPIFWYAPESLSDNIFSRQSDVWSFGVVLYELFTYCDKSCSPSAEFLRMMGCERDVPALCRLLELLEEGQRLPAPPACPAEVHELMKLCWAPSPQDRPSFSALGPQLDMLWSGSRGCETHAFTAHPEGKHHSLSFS
T3 sequence (P23458 866-1154): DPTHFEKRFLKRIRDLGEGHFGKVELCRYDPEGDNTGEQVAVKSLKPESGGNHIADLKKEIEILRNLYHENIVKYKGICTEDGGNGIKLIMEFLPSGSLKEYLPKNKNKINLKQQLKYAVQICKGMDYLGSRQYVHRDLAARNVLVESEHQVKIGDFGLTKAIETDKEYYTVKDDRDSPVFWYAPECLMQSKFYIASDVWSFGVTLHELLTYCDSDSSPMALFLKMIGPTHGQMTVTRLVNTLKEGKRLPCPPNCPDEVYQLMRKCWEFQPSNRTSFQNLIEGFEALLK

| SMILES | IC50 (human TYK2) [nM] | IC50 ([1]; Homo sapiens, HeLa) [nM] | IC50 (BA/F3 cell line) [nM] | IC50 (human JAK3) [nM] | IC50 (human JAK1) [nM] | IC50 [1] [nM] | IC50 (CTLL-2 cell line) [nM] |
| --- | --- | --- | --- | --- | --- | --- | --- |
| CCc1cc(-c2cnn(C)c2)ncc1N(C)c1cc2c(cn1)ncn2C [Compound 280, N-(4-Ethyl-6-(1-methyl-1H-pyrazol-4-yl)pyridin-3-yl)-N,1-dimethyl-1H-imidazo[4,5-c]pyridin-6-amine] | 101 to 500 | – | > 5000 | > 1000 | 0.01 to 100 | > 1000 | > 1000 |
| CCc1cc(-c2cn[nH]c2)ccc1N(C)c1cc2c(cn1)ncn2C [Compound 210, N-(2-ethyl-4-(1H-pyrazol-4-yl)phenyl)-N,1-dimethyl-1H-imidazo[4,5-c]pyridin-6-amine] | 0.01 to 100 | 1 to 500 | 1 to 1000 | 0.01 to 100 | 0.01 to 100 | – | > 1000 |
| CCc1cc(C2=CCN(C(=O)C3(O)CC3)CC2)ccc1N(C)c1cc2c(cn1)ncn2C [Compound 229, (4-(3-ethyl-4-(methyl(1-methyl-1H-imidazo[4,5-c]pyridin-6-yl)amino)phenyl)-5,6-dihydropyridin-1(2H)-yl)(1-hydroxycyclopropyl)meth-anone] | 0.01 to 100 | 1 to 500 | 1000 to 5000 | 101 to 500 | 0.01 to 100 | – | > 1000 |
| CCc1cc(C2=CCN(C(=O)COC)CC2)ccc1N(C)c1cc2c(cn1)ncn2C [Compound 199, 1-(4-(3-ethyl-4-(methyl(1-methyl-1H-imidazo[4,5-c]pyridin-6-yl)amino)phenyl)-5,6-dihydropyridin-1(2H)-yl)-2-methoxyethanone] | 0.01 to 100 | 1 to 500 | 1000 to 5000 | 0.01 to 100 | 0.01 to 100 | – | > 1000 |
| CCc1cc(-c2cncc(C(F)(F)F)c2)ccc1N(C)c1cc2c(cn1)ncn2C [Compound 194, N-(2-ethyl-4-(5-(trifluoromethyl)pyridin-3-yl)phenyl)-N,1-dimethyl-1H-imidazo[4,5-c]pyridin-6-amine] | 501 to 1000 | > 1000 | 1000 to 5000 | > 1000 | 0.01 to 100 | – | > 1000 |
| CCc1cc(C2=CCN(C(=O)CC#N)CC2)ccc1N(C)c1cc2c(cn1)ncn2C [Compound 195, 3-(4-(3-Ethyl-4-(methyl(1-methyl-1H-imidazo[4,5-c]pyridin-6-yl)amino)phenyl)-5,6-dihydropyridin-1(2H)-yl)-3-oxopropanenitrile] | 0.01 to 100 | 501 to 1000 | 1000 to 5000 | 101 to 500 | 0.01 to 100 | – | > 1000 |
| CCc1cc(C2=CCN(C(=O)[C@@H](C)O)CC2)ccc1N(C)c1cc2c(cn1)ncn2C [Compound 248, (R)-1-(4-(3-ethyl-4-(methyl(1-methyl-1H-imidazo[4,5-c]pyridin-6-yl)amino)phenyl)-5,6-dihydropyridin-1(2H)-yl)-2-hydroxypropan-1-one] | 0.01 to 100 | 1 to 500 | 1000 to 5000 | 0.01 to 100 | 0.01 to 100 | – | > 1000 |
| CCc1cc(CN2CCCS2(=O)=O)ccc1N(C)c1cc2c(cn1)ncn2C [Compound 262, [4-(1,1-Dioxoisothiazolidin-2-ylmethyl)-2-ethyl-phenyl]-methyl-(1-methyl-1H-imidazo[4,5-c]pyridin-6-yl)-amine] | 101 to 500 | – | 1000 to 5000 | 101 to 500 | 0.01 to 100 | 1 to 500 | > 1000 |
| CCc1cc(-c2cncs2)ccc1N(C)c1cc2c(cn1)ncn2C [Compound 151, N-(2-Ethyl-4-(thiazol-5-yl)phenyl)-N,1-dimethyl-1H-imidazo[4,5-c]pyridin-6-amine] | 0.01 to 100 | 1 to 500 | 1000 to 5000 | 0.01 to 100 | 0.01 to 100 | – | > 1000 |
| CCc1cc(C2=CCN(C(=O)C(F)F)CC2)ccc1N(C)c1cc2c(cn1)ncn2C [Compound 197, 1-(4-(3-ethyl-4-(methyl(1-methyl-1H-imidazo[4,5-c]pyridin-6-yl)amino)phenyl)-5,6-dihydropyridin-1(2H)-yl)-2,2-difluoroethanone] | 0.01 to 100 | 1 to 500 | 1000 to 5000 | 0.01 to 100 | 0.01 to 100 | – | 501 to 1000 |
| CCc1cc(CNC2COC2)ccc1N(C)c1cc2c(cn1)ncn2C [Compound 167, N-(2-ethyl-4-((oxetan-3-ylamino)methyl)phenyl)-N,1-dimethyl-1H-imidazo[4,5-c]pyridin-6-amine] | 501 to 1000 | – | > 5000 | > 1000 | 0.01 to 100 | > 1000 | > 1000 |
| CN(c1cc2c(cn1)ncn2C)c1ccc(-c2cnn(C)c2)cc1OC(F)F [Compound 274, N-(2-(Difluoromethoxy)-4-(1-methyl-1H-pyrazol-4-yl)phenyl)-N,1-dimethyl-1H-imidazo[4,5-c]pyridin-6-amine] | 0.01 to 100 | – | 1000 to 5000 | 101 to 500 | 0.01 to 100 | 1 to 500 | > 1000 |

Now from value to compound, other results behind:

| IC50 (human TYK2) [nM] | IC50 ([1]; Homo sapiens, HeLa) [nM] | IC50 (BA/F3 cell line) [nM] | IC50 (human JAK3) [nM] | IC50 (human JAK1) [nM] | IC50 [1] [nM] | SMILES | IC50 (CTLL-2 cell line) [nM] |
| --- | --- | --- | --- | --- | --- | --- | --- |
| 0.01 to 100 | 1 to 500 | 1000 to 5000 | 0.01 to 100 | 0.01 to 100 | – | CCc1cc(CNS(C)(=O)=O)ccc1N(C)c1cc2c(cn1)ncn2C [Compound 190, N-(3-Ethyl-4-(methyl(1-methyl-1H-imidazo[4,5-c]pyridin-6-yl)amino)benzyl)methane sulfonamide] | > 1000 |
| 0.01 to 100 | 1 to 500 | > 5000 | 0.01 to 100 | 0.01 to 100 | – | CCc1cc(CNS(=O)(=O)CC#N)ccc1N(C)c1cc2c(cn1)ncn2C [Compound 228, 1-cyano-N-(3-ethyl-4-(methyl(1-methyl-1H-imidazo[4,5-c]pyridin-6-yl)amino)benzyl)methane-sulfonamide] | 1 to 500 |
| 101 to 500 | 1 to 500 | > 5000 | 0.01 to 100 | 0.01 to 100 | – | CCc1cc(CNC(=O)C(F)F)ccc1N(C)c1cc2c(cn1)ncn2C [Compound 256, N-(3-ethyl-4-(methyl(1-methyl-1H-imidazo[4,5-c]pyridin-6-yl)amino)benzyl)-2,2-difluoroacetamide] | > 1000 |
| 101 to 500 | – | > 5000 | 501 to 1000 | 0.01 to 100 | 501 to 1000 | CCc1cc(CNS(=O)(=O)C2CC2)ccc1N(C)c1cc2c(cn1)ncn2C [Compound 227, N-(3-ethyl-4-(methyl(1-methyl-1H-imidazo[4,5-c]pyridin-6-yl)amino)benzyl)cyclopro-panesulfonamide] | > 1000 |
| 0.01 to 100 | 1 to 500 | 1000 to 5000 | 0.01 to 100 | 0.01 to 100 | – | CCc1cc(CNS(=O)(=O)CC(F)(F)F)ccc1N(C)c1cc2c(cn1)ncn2C [Compound 244, N-(3-ethyl-4-(methyl(1-methyl-1H-imidazo[4,5-c]pyridin-6-yl)amino)benzyl)-2,2,2-trifluoroethane sulfonamide] | > 1000 |
| 0.01 to 100 | 1 to 500 | > 5000 | 0.01 to 100 | 0.01 to 100 | – | CCc1cc(CNS(=O)(=O)CC)ccc1N(C)c1cc2c(cn1)ncn2C [Compound 253, N-(3-ethyl-4-(methyl(1-methyl-1H-imidazo[4,5-c]pyridin-6-yl)amino)benzyl)ethane-sulfonamide] | > 1000 |
| > 1000 | > 1000 | > 5000 | > 1000 | 0.01 to 100 | – | CCc1cc(CNC(=O)COC)ccc1N(C)c1cc2c(cn1)ncn2C [Compound 254, N-(3-Ethyl-4-(methyl(1-methyl-1H-imidazo[4,5-c]pyridin-6-yl)amino)benzyl)-2-methoxyacetamide] | > 1000 |
| 101 to 500 | > 1000 | > 5000 | 501 to 1000 | 0.01 to 100 | – | CCc1cc(CNC(C)=O)ccc1N(C)c1cc2c(cn1)ncn2C [Compound 182, N-(3-Ethyl-4-(methyl(1-methyl-1H-imidazo[4,5-c]pyridin-6-yl)amino)benzyl)acetamide] | > 1000 |
